{"source": "paper PMC2858449", "about": "(Journal of immunology (Baltimore, Md. : 1950), 2009)", "key": {"CD8^+ T cells [1]": {"system": "CD8^+ T cells", "assay_type": "cell-based, BALB/c mice", "settings": "intracellular IFN-γ"}, "CD8^+ T cells [2]": {"system": "CD8^+ T cells", "assay": "Intracellular cytokine staining for IFN-γ, IL-2 and TNF-α", "assay_type": "cell-based, BALB/c mice", "settings": "HIV-1BaL Env-immunized mice (DNA-primed/rAd-boosted); peptide stimulation"}}, "note": "Like-named read-outs stand apart in the source and are kept apart here."}
{"sequence": "IGPGRAFYTT [PT10]", "values": [{"measurement": "recall response to peptide (in words)", "setting": "CD8^+ T cells [1]; mice immunized with the HIV-1IIIB vaccine", "result": "failed to respond"}]}
{"sequence": "IGPGRAFYA [PA9]", "values": [{"measurement": "proportion of triple-positive (IFN-γ, IL-2, TNF-α) CD8^+ T cells", "setting": "CD8^+ T cells [2]", "result": 46, "unit": "%"}]}
{"sequence": "RGPGRAFVTI [P18I10, reference compound]", "values": [{"measurement": "recall response to peptide (in words)", "setting": "CD8^+ T cells [1]; mice primed with HIV-1BaL DNA and boosted with rAd", "result": "did not respond"}]}
